Structures can show the parent of a compound that is named as a salt.
Key:
Assay type in all cases: cell-based, human
CTBS = assay: Gene expression assay, lysosome gene CTBS; conditions: probe 218924_s_at; ARPE-19/HPV-16, 10 μM, 24 h
Description: (§1) A drug screen was used to test agents having the potential to treat or prevent SARS-CoV-2 infection. The retinal pigment epithelia cell line, ARPE-19/HPV-16, was chosen to establish a database of drug profiles because of its non-cancerous, human origin, with a normal karyotype. ARPE-19/HPV-16 can be easily grown as monolayer in 96-well plates and expresses a variety of well known, neuronal, cell surface receptors that include the dopamine receptor D2, the serotonin receptors 1A, 2A, and 2C, the muscarinic receptor M3, and the histamine receptor H1.
(§2) Cell lines were propagated according to supplier's specifications (ATCC Manassas, VA). Compounds were obtained from Sigma (St. Louis, MO) or Vanda Pharmaceuticals (Washington, DC). Cells were aliquoted on 96-well plates (˜2×10^5 cells/well) and incubated for 24 hours prior to providing fresh media with a drug, or the drug vehicle (water, dimethyl sulfoxide, ethanol, methanol, or phosphate-buffered saline solution). Drugs were diluted 1000-fold in buffered Advanced D-MEM/F-12 culture medium (Invitrogen, Carlsbad, CA) containing nonessential amino acids and 110 mg/L sodium pyruvate. […]
(§3) Cells were harvested 24 hours after treatment and RNA was extracted using the RNeasy 96 protocol (Qiagen, Valencia, CA). […] A total of 708 microarrays were analyzed including 74 for 18 antipsychotics, 499 for 448 other compounds, and 135 for vehicle controls. […]

LGMN = assay: Gene expression assay, lysosome gene LGMN; conditions: probe 201212_at; ARPE-19/HPV-16, 10 μM, 24 h
Description: as §1, §2, §3

LAMP1 = assay: Gene expression assay, lysosome gene LAMP1; conditions: probe 201551_s_at; ARPE-19/HPV-16, 10 μM, 24 h
Description: as §1, §2, §3

CTSB = assay: Gene expression assay, lysosome gene CTSB; conditions: probe 213274_s_at; ARPE-19/HPV-16, 10 μM, 24 h
Description: as §1, §2, §3

RAB38 = assay: Gene expression assay, lysosome gene RAB38; conditions: probe 219412_at; ARPE-19/HPV-16, 10 μM, 24 h
Description: as §1, §2, §3

BCL10 = assay: Gene expression assay, lysosome gene BCL10; conditions: probe 205263_at; ARPE-19/HPV-16, 10 μM, 24 h
Description: as §1, §2, §3

SCARB2 = assay: Gene expression assay, lysosome gene SCARB2; conditions: probe 201647_s_at; ARPE-19/HPV-16, 10 μM, 24 h
Description: as §1, §2, §3

CTSH = assay: Gene expression assay, lysosome gene CTSH; conditions: probe 202295_s_at; ARPE-19/HPV-16, 10 μM, 24 h
Description: as §1, §2, §3

CPQ = assay: Gene expression assay, lysosome gene CPQ; conditions: ARPE-19/HPV-16, 10 μM, 24 h
Description: as §1
(§4) Cell lines were propagated according to supplier's specifications (ATCC Manassas, VA). Compounds were obtained from Sigma (St. Louis, MO) or Vanda Pharmaceuticals (Washington, DC). Cells were aliquoted on 96-well plates (˜2×10^5 cells/well) and incubated for 24 hours prior to providing fresh media with a drug, or the drug vehicle (water, dimethyl sulfoxide, ethanol, methanol, or phosphate-buffered saline solution). Drugs were diluted 1000-fold in buffered Advanced D-MEM/F-12 culture medium (Invitrogen, Carlsbad, CA) containing nonessential amino acids and 110 mg/L sodium pyruvate. In these conditions, no significant changes of pH were expected, which was confirmed by the monitoring of the pH indicator present in the medium.
(§5) A final 10 μM drug concentration was chosen because it is believed to fit in the range of physiological relevance. Microscopic inspection of each well was conducted at the end of the treatment to discard any samples where cells had morphological changes consistent with apoptosis. It was also verified that the drug had not precipitated in the culture medium.
(§6) Cells were harvested 24 hours after treatment and RNA was extracted using the RNeasy 96 protocol (Qiagen, Valencia, CA). Gene expression for 22,238 probe sets of 12,490 genes was generated with U133A2.0 microarrays following the manufacturer's instructions (Affymetrix, Santa Clara, CA). Drugs were profiled in duplicate or triplicate, with multiple vehicle controls on each plate. A total of 708 microarrays were analyzed including 74 for 18 antipsychotics, 499 for 448 other compounds, and 135 for vehicle controls.
(§7) The raw scan data were first converted to average difference values using MAS 5.0 (Affymetrix). The average difference values of both treatment and control data were set to a minimum threshold of 50 if below 50. For each treatment instance, all probe sets were then ranked based on their amplitude, or level of expression relative to the vehicle control (or average of controls when more than one was used). Amplitude was defined as the ratio of expression (t−v)/[(t+v)/2] where t corresponds to treatment instance and v to vehicle instance. […]

GJA1 = assay: Gene expression assay, lysosome gene GJA1; conditions: probe 201667_at; ARPE-19/HPV-16, 10 μM, 24 h
Description: as §1, §2, §3

ceroid-lipofuscinosis = assay: Gene expression assay, lysosome gene ceroid-lipofuscinosis; conditions: ARPE-19/HPV-16, 10 μM, 24 h
Description: as §1, §4, §5, §6, §7

CTSL = conditions: ARPE-19/HPV-16 cells, 10 μM drug, 24 hours
Description: Each drug group profile was created using a novel Weighted Influence Model, Rank of Ranks (WIMRR) method which underscores the rank of each probe set across the entire gene expression profile rather than the specific change in expression level. WIMRR takes the average rank of each probe set across all of the members of the group and then re-ranks the probe sets from smallest average rank to largest average rank. A gene-set enrichment metric based on the Kolmogorov-Smirnov (KS) statistic.
Applicant analyzed expression profile of CTSL across all 466 drugs tested. In order to find positive hits and selected only those results that caused decrease of CTSL expression by at least 33% (1.5-fold down).

CTSK = assay: Gene expression assay, lysosome gene CTSK; conditions: probe 202450_s_at; ARPE-19/HPV-16, 10 μM, 24 h
Description: as §1, §2, §3

RNASET2 = assay: Gene expression assay, lysosome gene RNASET2; conditions: probe 217983_s_at; ARPE-19/HPV-16, 10 μM, 24 h
Description: as §1, §2, §3

N-acetyl-6-sulfatase = assay: Gene expression assay, lysosome gene N-acetyl-6-sulfatase; conditions: probe 212334_at; ARPE-19/HPV-16, 10 μM, 24 h
Description: as §1, §2, §3

PSAP = assay: Gene expression assay, lysosome gene PSAP; conditions: probe 200866_s_at; ARPE-19/HPV-16, 10 μM, 24 h
Description: as §1, §2, §3

MAR3 = assay: Gene expression assay, lysosome gene MAR3; conditions: probe 213256_at; ARPE-19/HPV-16, 10 μM, 24 h
Description: as §1, §2, §3

## NC12CC3CC(CC(C3)C1)C2 [Amantadine Hydrochloride]
CTBS
  avg_tx (log2) CTBS: 6.59 log2
  diff (log2) CTBS: −1.32 log2
LGMN
  avg_tx (log2) LGMN: 8.33 log2
  diff (log2) LGMN: −1.35 log2
LAMP1
  avg_tx (log2) LAMP1: 7.87 log2
  diff (log2) LAMP1: −1.4 log2
CTSB
  avg_tx (log2) CTSB: 7.75 log2
  diff (log2) CTSB: −1.48 log2
RAB38
  avg_tx (log2) RAB38: 6.51 log2
  diff (log2) RAB38: −1.3 log2
BCL10
  avg_tx (log2) BCL10: 7.44 log2
  diff (log2) BCL10: −1.25 log2
SCARB2
  avg_tx (log2) SCARB2: 6.97 log2
  diff (log2) SCARB2: −1.63 log2
CTSH
  avg_tx (log2) CTSH: 9.62 log2
  diff (log2) CTSH: −2.51 log2
CPQ; probe 203501_at
  avg_tx (log2) CPQ: 6.41 log2
  diff (log2) CPQ: −1.55 log2
CPQ; probe 208454_s_at
  avg_tx (log2) CPQ: 7.3 log2
  diff (log2) CPQ: −1.34 log2
GJA1
  avg_tx (log2) GJA1: 11.23 log2
  diff (log2) GJA1: −1.76 log2
ceroid-lipofuscinosis; probe 204085_s_at
  avg_tx (log2) ceroid-lipofuscinosis: 5.93 log2
  diff (log2) ceroid-lipofuscinosis: −1.74 log2
ceroid-lipofuscinosis; probe 214252_s_at
  avg_tx (log2) ceroid-lipofuscinosis: 6.13 log2
  diff (log2) ceroid-lipofuscinosis: −1.57 log2
CTSL
  log2(treated) CTSL: 9.62 log2
  log2 difference (CTSL, treated vs control): −0.70 log2
CTSK
  avg_tx (log2) CTSK: 7.09 log2
  diff (log2) CTSK: −1.81 log2
RNASET2
  avg_tx (log2) RNASET2: 8 log2
  diff (log2) RNASET2: −1.81 log2
N-acetyl-6-sulfatase
  avg_tx (log2) N-acetyl-6-sulfatase: 9.71 log2
  diff (log2) N-acetyl-6-sulfatase: −1.27 log2
PSAP
  avg_tx (log2) PSAP: 10.59 log2
  diff (log2) PSAP: −1.36 log2
MAR3
  avg_tx (log2) MAR3: 5.55 log2
  diff (log2) MAR3: −1.57 log2

— US20230346717A1, “IDENTIFICATION AND USE OF COMPOUNDS IN THE TREATMENT OR PREVENTION OF SEVERE ACUTE RESPIRATORY SYNDROME CORONAVIRUS 2” (priority 2020, published 2023)
